Results taken from US20080085912A1, “Isoxazole derivatives and methods of treating diseases” (Unitech Pharmaceuticals, Inc., priority 2006, published 2008).
“And” between values parts separate entries of the source, which are not always exact repeats. Equal values may be shown once.

Experiments:
[1] = system: JAK3; assay: Gene array analysis, keratinocytes: JAK3; format: cell-based, Human; conditions: for Ratio of treated/control / Suppression %: 35 μg/ml, UVB
Method: (§1) Human epidermal keratinocytes were seeded into 6-well plates and grown at 37±2° C. and 5±1% CO2 using serum free Epilife media supplemented as recommended by the manufacturer. Upon reaching confluency, the media were removed and the cells were treated overnight with Epilife media containing 1% v/v each of the stock solutions above (Vehicle stock and UTR-1 stock). Final concentration was 35 μg/ml for UTR-1. Two wells in the 6-well plate were prepared for each treatment. After applying the test material the cells were incubated for 24 hours at 37±2° C. and 5±1% CO2.
(§2) At the end of the incubation period the culture media was removed via aspiration and replaced with phosphate buffered saline and the cells were then irradiated with ˜30 mJ/cm^2 of UVB radiation. After the irradiation, the phosphate buffered saline was replaced by fresh culture media and the cells were incubated overnight at 37±2° C. and 5±1% CO2. After the incubation the cell culture media was collected to measure TNF-α release by a commercial ELISA Assay kit. The cells were washed once with PBS and then a trypsin/EDTA solution was added to release the cells, followed by the addition of trypsin neutralizing solution. The cells were collected and pooled into 15 ml centrifuge tubes based on their treatment and pelleted by centrifuging at 1000 RPM at 4±2° C. After removing the supernatant, the pelleted cells were lysed by adding 500 μl of guanidinium thiocyanate lysis solution to each tube and then repeatedly drawing and releasing the solution into the pipette until the cell pellet is dissolved. Total RNA was then isolated by an RNAqueous kit (Ambion). After purifying the RNA, mRNA is isolated and the converted into anti-sense RNA (aRNA). The aRNA is then labeled with a florescent probe. In this case, Cy3 (green florescent signal) is used to label the sRNA from untreated sample, while Cy5 (red fluorescent) is used to label the aRNA of treated sample. Once the aRNA is labeled and any unincorporated dye is removed from the sample, the labeled aRNA is mixed with a hybridized solution and applied to the microarray. The microarray is then hybridized overnight at 60-65° C. After hybridization, the microarray is washed to remove any unbound aRNA probe and then scanned with a microarray scanner. Criteria for evaluating changes in gene expression may vary. In general, (1) the fluorescence intensity of the gene marker should be greater than the background intensity, and (2) the ratio of Cy5/Cy3 (treated/untreated) fluorescence intensity needs to be greater than 1.3 or less than 0.66 to indicate a change of ±30% in gene expression.

[2] = system: APOBEC1; assay: Gene array analysis, keratinocytes: APOBEC1; format: cell-based, Human; conditions: 35 μg/ml; UVB
Method: as §1
(§3) At the end of the incubation period the culture media was removed via aspiration and replaced with phosphate buffered saline and the cells were then irradiated with ˜30 mJ/cm^2 of UVB radiation. After the irradiation, the phosphate buffered saline was replaced by fresh culture media and the cells were incubated overnight at 37±2° C. and 5±1% CO2. After the incubation the cell culture media was collected to measure TNF-α release by a commercial ELISA Assay kit. […] In general, (1) the fluorescence intensity of the gene marker should be greater than the background intensity, and (2) the ratio of Cy5/Cy3 (treated/untreated) fluorescence intensity needs to be greater than 1.3 or less than 0.66 to indicate a change of ±30% in gene expression.

[3] = system: MAP3K2; assay: Gene array analysis, keratinocytes: MAP3K2; format: cell-based, Human
Method: as §1
as §2, with “In this case, Cy3 (green florescent signal) is used to label the sRNA from untreated sample, while Cy5 (red fluorescent) is used to label the aRNA of treated sample. Once the aRNA is labeled and any unincorporated dye is removed from the sample, the labeled aRNA is mixed with a hybridized solution and applied to the microarray. The microarray is then hybridized overnight at 60-65° C. After hybridization, the microarray is washed to remove any unbound aRNA probe and then scanned with a microarray scanner. Criteria for evaluating changes in gene expression may vary.” left out

[4] = system: PTGER1; assay: Gene array analysis, keratinocytes: PTGER1; format: cell-based, Human; conditions: 35 μg/ml; UVB
Method: as §1, §3

[5] = system: EPHB4; assay: Gene array analysis, keratinocytes: EPHB4; format: cell-based, Human; conditions: 35 μg/ml; UVB
Method: as §1, §3

[6] = system: Carrageenan-induced hind paw edema; assay: Carrageenan-induced hind paw edema test on rats; format: in vivo, SD rats; conditions: for Anti-inflammatory activity (in words): carrageenan-induced edema animal study; for Avg E % of the injected paw: group average of 5 rats; for Avg E % of the injected paw / Edema % of the injected paw: 20 mg/kg i.p. pretreatment; for Volume (ml) of the injected paw / Edema % of the injected paw: individual rats (Rat 1-5); for Volume (ml) of the injected paw: 20 mg/kg i.p. 1 h before carrageenan, 20 mg/kg
Method: Male/female SD rats (180-215 g) were assigned to two groups: (1) control group and (2) test group, with 5 rats in each group. UTR-1 was first dissolved in DMSO (20 mg in 0.5 ml DMSO) and then diluted with 1% CMC (carboxymethylcellulose) to make 5 ml sample preparation. One hour before the carrageenan challenge (pretreatment), 1 ml of the sample preparation was injected i.p. into a rat in a test group. This is equivalent to 20 mg/kg (1 ml×4 mg/ml×1000 g/200 g=20 mg/kg based on the average weight per rat of 200 g). The vehicle without drug was injected in the same way into animals in the control group. In order to induce inflammation, 50 μl of a 1% carrageenan solution in normal saline was injected into the right hind paw subplantar tissue. The development of paw edema was measured by a plethysmometer (Basile 7140 plethysmometer, Ugo, Varese, Italy). After the carrageenan challenge, each paw volume (ml) was measured hourly. The Edema (E %) is calculated as follows: [formula] V0=Volume (mL) of the rear right footpad before the injection of Carrageenan Vt=Volume (mL) of the rear right footpad at “t” time after the injection of Carrageenan

[7] = system: EFA6R; assay: Gene array analysis, keratinocytes: EFA6R; format: cell-based, Human; conditions: 35 μg/ml; UVB
Method: as §1, §3

[8] = system: TUCAN; assay: Gene array analysis, keratinocytes: TUCAN; format: cell-based, Human; conditions: 35 μg/ml; UVB
Method: as §1, §3

[9] = system: ITGB6; assay: Gene array analysis, keratinocytes: ITGB6; format: cell-based, Human; conditions: 35 μg/ml; UVB
Method: as §1, §3

[10] = system: TNF-α; assay: TNF-α released from UVB-irradiated keratinocytes in vitro (ELISA); format: cell-based, Human
Method: 1. Vehicle stock: 50:50 v/v EtOH:PEG 600
2. UTR-1 stock: 3.5 mg/ml UTR-1 in a vehicle of 50:50 v/v EtOH:PEG 600
as §1, §2

[11] = system: DEFA6; assay: Gene array analysis, keratinocytes: DEFA6; format: cell-based, Human; conditions: 35 μg/ml; UVB
Method: as §1, §3

[12] = array entry MAP3K2 (homo sapien), 35 μg/ml, UVB
[13] = UVB ~30 mJ/cm^2, 35 μg/ml, 24 h pretreatment

Cc1cc(C(=O)O)no1 [UTR-1, 5-methylisoxazole-3-carboxylic acid]
Ratio of treated/control ([1]; array entry JAK3 (homo sapien)): 0.386 | Suppression % ([1]; array entry JAK3 (homo sapien)): 61% | Ratio of treated/control ([1]; array entry JAK3): 0.417 | Suppression % ([1]; array entry JAK3): 58% | Gene suppression (in words) ([1]; gene array analysis): significantly suppressed | Ratio of treated/control [2]: 0.333 | Suppression % [2]: 67% | Ratio of treated/control [3, 12]: 0.592 | Suppression % [3, 12]: 40% | Gene suppression (in words) ([3]; gene array analysis): significantly suppressed | Ratio of treated/control [4]: 0.286 | Suppression % [4]: 71% | Ratio of treated/control [5]: 0.433 | Suppression % [5]: 57% | Anti-inflammatory activity (in words) [6]: surpassingly effective in anti-inflammation | Anti-inflammatory activity (in words) ([6]; listed as 5-methylisoxazole-3-carboxylic aicd): surprisingly and unexpectedly effective in anti-inflammation | Avg E % of the injected paw ([6]; Time 0 hr): 0.00% | Avg E % of the injected paw ([6]; Time 1 hr): 11.90% | Avg E % of the injected paw ([6]; Time 2 hr): 22.70% | Avg E % of the injected paw ([6]; Time 3 hr): 37.85% | Avg E % of the injected paw ([6]; Time 4 hr): 49.89% | Volume (ml) of the injected paw ([6]; Time 0 hr): 1.46 ml and 1.48 ml and 1.35 ml and 1.33 ml (2×) | Volume (ml) of the injected paw ([6]; Time 1 hr): 1.77 ml and 1.47 ml and 1.50 ml (2×) and 1.53 ml | Volume (ml) of the injected paw ([6]; Time 2 hr): 1.92 mL and 1.53 mL and 1.65 mL and 1.66 mL and 1.75 mL | Volume (ml) of the injected paw ([6]; Time 3 hr): 2.36 mL and 1.55 mL and 1.76 mL and 2.10 mL and 1.79 mL | Volume (ml) of the injected paw ([6]; Time 4 hr): 2.49 mL and 1.62 mL and 1.78 mL and 2.35 mL and 2.14 mL | Edema % of the injected paw ([6]; Time 0 hr): 0.00% | Edema % of the injected paw ([6]; Time 1 hr): 21.23% and −0.68% and 11.11% and 15.04% and 12.78% | Edema % of the injected paw ([6]; Time 2 hr): 31.51% and 3.38% and 22.22% and 24.81% and 31.58% | Edema % of the injected paw ([6]; Time 3 hr): 61.64% and 4.73% and 30.37% and 57.89% and 34.59% | Edema % of the injected paw ([6]; Time 4 hr): 70.55% and 9.46% and 31.85% and 76.69% and 60.90% | Ratio of treated/control [7]: 0.375 | Suppression % [7]: 63% | Ratio of treated/control [8]: 0.333 | Suppression % [8]: 67% | Ratio of treated/control [9]: 0.3 | Suppression % [9]: 70% | Reduction of TNF-α secreted from stimulated keratinocyte cells (in words) [10]: very effective in reducing TNF-α | TNFα (pg/ml), Sample2 [10, 13]: 119 pg/mL | TNFα (pg/ml), sample1 [10, 13]: 120 pg/mL | TNFα Avg. ([10]; average of n=2 wells, UVB ~30 mJ/cm^2, 35 μg/ml): 120 pg/mL | Ratio of treated/control [11]: 0.38 | Suppression % [11]: 62%
